Article PMC12298648, “An Evaluation of the Cytotoxicity and Safety Profile of Usnic Acid for a Broad Panel of Human Cancers and Normal Cells with Respect to Its Enantiospecificity” (Molecules, 2025)
≈ marks a conversion by molar mass, not a printed value. Like-named read-outs stand apart in the source and are kept apart here.

Legend:
[1] = system: 518A2; design: method as in PMID 27936296; details: 518A2, 72 h, cited from earlier work
[2] = system: FemX; design: method as in PMID 23203090; details: 72 h; cited from earlier work
[3] = system: HepG2 cells; design: method as in PMID 40368021; details: HepG2, 24 h, reference drug; cited from earlier work
[4] = system: PNT2; test: MTT viability assay, normal prostate epithelial cells; type: cell-based, human; details: Homo sapiens, PNT2; normal prostate epithelial cells, reference drug, time not given; read-out: IC50
Text: (§1) Cell lines of different origins were used in the study and grouped as follows: prostate panel (human prostate carcinomas: DU145, derived from metastatic site: brain; grade IV PC3, derived from metastatic site: bone; LNCaP, derived from the metastatic site: lymph node; prostate epithelial, PNT2), colon panel (colorectal adenocarcinomas: HT29, originating from a primary tumor; Duke’s type C DLD-1, with the potential to lymph node metastasis; highly metastatic HCT116; colon epithelial cells CCD 841 CoN), thyroid panel (follicular thyroid carcinoma FTC133, anaplastic thyroid carcinoma 8505C, papillary thyroid carcinoma TPC-1, normal thyroid follicular epithelial Nthy-ori 3–1), breast panel (ER-positive breast adenocarcinoma MCF7, ER-negative breast adenocarcinoma MDA-MB-231, breast epithelial MCF10A), brain panel (neuroblastoma SH-SY5Y, glioblastoma U-87 MG, murine astrocytes C8D1A). All cell lines were purchased from Merck (Darmstadt, Germany).
(§2) Cells were grown under standard conditions (37 °C, 5% CO2) and culture media (DMEM/F12 for PNT2, PC3, FTC133, 8505 C, MDA-MB-231, TPC-1; DMEM Low Glucose for DU145; DMEM High Glucose for HCT116, DLD-1, SH-SY5Y, U87MG, C8D1A; MEM with NEAA for MCF7; MEM for CCD 841 CoN; McCoy’s for HT29; RPMI1640 with sodium pyruvate for LNCaP; DMEM/F12 with 20 ng/mL epidermal growth factor (EGF), 10 μg/mL insulin, 0.5 μg/mL hydrocortisone, 100 ng/mL cholera toxin) for MCF10A), supplemented with 10% fetal bovine serum (FBS) or 5% donor horse serum for MCF10A, and 1% antibiotics solution (10,000 U penicillin and 10 mg streptomycin/mL). The tested substances were prepared as 10 mg/mL stock solutions in DMSO and further diluted in the culture media to the working concentrations. Cells were treated with UA enantiomers at the concentration range of 0–50 µg/mL. The influence of DMSO on cell viability was also examined, with the final concentration […], and no toxic effect was noted.
(§3) The cells were seeded onto 96-well plates at a density of 1.5 × 10^4 cells/well. After 24 h UA enantiomers were added. Cell viability was determined after 24, 48, and 72 h by the MTT assay, as described previously. Doxorubicin was used as a reference cytostatic drug. All analyses were performed in triplicate; cell viability was expressed as % of control, untreated cells (mean ± SD), and IC50 values (concentration at which cell viability is inhibited by 50%), if possible.

[5] = system: human non-cancerous skin cells; design: method as in PMID 34500657; details: 24 h, reference drug; cited from earlier work
[6] = system: WM793 cells; design: method as in PMID 34577645; details: WM793, reference drug, time not given; cited from earlier work
[7] = system: C8D1A; test: MTT viability assay, normal astrocytes C8D1A; type: cell-based, murine; details: Mus musculus, C8-D1A; murine astrocytes, 24 h, reference drug
Text: as §1, §2, §3

[8] = system: CCD 841 CoN; test: MTT viability assay, normal colon epithelial cells; type: cell-based, human; details: Homo sapiens, CCD-841CoN; normal colon epithelial cells, 24 h, reference drug; read-out: IC50
Text: as §1, §2, §3

CC(=O)c1c(O)c(C)c(O)c2c1OC1=CC(=O)C(C(C)=O)C(=O)C12C (stereo not drawn) [UA, Usnic acid]
IC50 ([1]; recalculated from µM by the authors): ≈ 2 µg/mL | IC50 ([1]; read-out: IC50): 5.4 µM | IC50 [2]: 12.72 µg/mL (≈ 36.9 µM)

COc1cccc2c1C(=O)c1c(O)c3c(c(O)c1C2=O)C[C@@](O)(C(=O)CO)C[C@@H]3O[C@H]1C[C@H](N)[C@H](O)[C@H](C)O1 [doxorubicin, reference compound]
IC50 (hepatotoxicity) [3]: 1.03 µg/mL (≈ 1.9 µM) | IC50 [4]: 1.4 µg/mL (≈ 2.58 µM) | IC50 [5]: 4.7 µg/mL (≈ 8.65 µM) | IC50 [6]: > 100 µg/mL | IC50 [7]: 2.25 µg/mL (≈ 4.14 µM) | IC50 [8]: 2.25 µg/mL (≈ 4.14 µM)
